pIC50: −log10 of the molar value. Converted amounts (≈) assume the structure as drawn. Like-named read-outs stand apart in the source and are kept apart here.
Columns and labels:
log D measurement (HPLC) = format: physicochemical; conditions: for chromatographic logD: reverse-phase HPLC, pH 7.5, pH 7.5, HPLC method, read-out: logD7.5; for logD7.5: pH 7.5, HPLC method
Protocol: log D values at pH 7.5 were recorded using an indirect method for determining hydrophobicity constants by reverse-phase HPLC. A series of compounds with well-known log D values were used for calibration. Test compounds were injected into the same HPLC system. The lipophilicity of compounds was then assessed by comparison to the calibration curve.

Aqueous solubility = format: physicochemical; conditions: PBS pH 6.5, pH 6.5, PBS pH 6.5
Protocol: Test compounds were applied as DMSO solutions or directly from powder. After the addition of the buffer, solutions were shaken at rt for 24 h. The undissolved material was removed by filtration or centrifugation. The compound dissolved in the supernatant was quantified by HPLC-UV or HPLC-MS/MS.

USP2 = molecular target: T1, USP2 (Homo sapiens, UniProt O75604); experiment: hUSP2 Ub-rhodamine 110 assay; format: biochemical; conditions: for pIC50: arithmetic means of multiple measurements, read-out: IC50 hUSP2 Ub-Rhod
T1 construct: His tag
T1 sequence (O75604 259-605): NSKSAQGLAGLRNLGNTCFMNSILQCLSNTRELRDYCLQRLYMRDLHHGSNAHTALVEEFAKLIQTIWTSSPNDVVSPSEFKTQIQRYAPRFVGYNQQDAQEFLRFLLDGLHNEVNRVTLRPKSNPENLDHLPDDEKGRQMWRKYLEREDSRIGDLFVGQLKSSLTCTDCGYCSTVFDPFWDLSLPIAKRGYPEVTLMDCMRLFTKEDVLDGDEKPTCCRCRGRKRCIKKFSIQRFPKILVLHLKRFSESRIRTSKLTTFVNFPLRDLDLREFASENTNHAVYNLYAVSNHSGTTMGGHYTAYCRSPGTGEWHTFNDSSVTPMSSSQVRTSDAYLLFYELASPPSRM
Protocol: The final assay volume was 6 μL.

USP21 [1] = molecular target: T2, USP21 (Homo sapiens, UniProt Q9UK80); experiment: Thermal shift assay (TSA); format: binding; parameters: purchased Ubiquigent (DUBprofiler service); conditions: 100 μM compound
T2 sequence (Q9UK80 1-565): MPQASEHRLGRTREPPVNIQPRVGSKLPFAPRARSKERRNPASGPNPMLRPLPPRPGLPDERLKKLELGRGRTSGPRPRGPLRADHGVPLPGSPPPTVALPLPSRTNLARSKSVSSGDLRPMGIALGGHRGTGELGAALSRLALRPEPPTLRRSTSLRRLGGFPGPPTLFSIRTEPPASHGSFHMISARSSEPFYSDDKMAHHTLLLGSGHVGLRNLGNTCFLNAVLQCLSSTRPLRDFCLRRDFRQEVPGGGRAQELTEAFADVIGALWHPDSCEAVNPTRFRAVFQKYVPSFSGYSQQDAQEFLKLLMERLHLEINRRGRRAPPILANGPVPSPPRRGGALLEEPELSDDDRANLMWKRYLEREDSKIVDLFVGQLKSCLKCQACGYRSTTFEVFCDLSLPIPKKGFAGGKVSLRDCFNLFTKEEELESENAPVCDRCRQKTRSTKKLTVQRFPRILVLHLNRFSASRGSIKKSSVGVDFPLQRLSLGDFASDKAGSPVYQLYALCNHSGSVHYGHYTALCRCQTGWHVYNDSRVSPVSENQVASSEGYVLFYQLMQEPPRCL
Protocol: Experiments were carried out with the QuantStudio7 Flex Real-Time PCR system (Thermo Fisher Scientific) in a 384-well plate format with 5 μL of reaction volume. Melting curves were obtained at an USP21 protein concentration of 3.8 μM and 5xSYPRO Orange (Invitrogen) using a buffer containing 20 mM Tris, pH 7.5; 150 mM NaCl; 10% glycerol; and 1.0 mM TCEP. […] For binding experiments, compounds were added from 10 mM stock solution to a final concentration of 100 μM. As a control, 1% DMSO was used. Scans were measured from 25 to 95 °C at a scanning rate of 4 °C/min. All TSA data were analyzed using a Genedata Assay Analyzer.

USP21 [2] = molecular target: T2, USP21
Protocol: To this end, we developed a USP21 activity assay that is based on the deubiquitination of a STING-derived peptide (a USP21-specific substrate[17],[18]) by purified recombinant human full-length USP21 using time-resolved fluorescence resonance energy transfer (TR-FRET) technology (referred to as a homogeneous time-resolved fluorescence (HTRF)-assay, for details see the Supporting Information).[39]
All substrate and enzyme solutions were diluted in an assay buffer. […] Incubation time was 15–20 min at room temperature. […] The stop solution (DUB inhibitor PR619, Abcam) was prepared in 25 mM HEPES, pH 7.5 (Alfa Aesar) containing 0.01% BSA and then left for 10 min at room temperature before filtering with a 0.2 μM PES Membrane (Thermo Fisher). The reaction was stopped with the addition of 2 μL of 200 μM PR619. […] The plates were measured on the ViewLux in screening or PHERAstar FSX in compound profiling. […] The number of flashes per well was set to 3. All of the experimental data were plotted using Genedata analysis. The Z′-factor and S/B of the assay were >0.7 and ∼2, respectively.

USP21 [3] = molecular target: T2, USP21; remark: listed apart in the source
Protocol: The final assay volume was 6 μL. […] First, 2 μL of 1 nM USP21 (or selectivity enzyme) solution was added to the compound plate and preincubated for 15–20 min at room temperature. […] The reaction was stopped by 50 mM citric acid in 25 mM HEPES, pH 7.5, containing 0.01% BSA. […] The USP21 and USP22 were measured with five flashes and USP2 and USP7 in fly mode.

in vitro = in vitro ADME; conditions: human, Caco-2, pH 7.2
Protocol: Caco-2 cells [purchased from the German Collection of Microorganisms and Cell Cultures (DSMZ)] were seeded at a density of 4.5 × 10^4 cells/well on 24-well insert plates [0.4 μm pore size, 0.3 cm^2 (Costar)] and grown for 13–15 days in DMEM medium supplemented with 10% fetal calf serum (FCS), 1% GlutaMAX (100×, Gibco), 100 U/mL penicillin, 100 μg/mL streptomycin (Gibco), and 1% nonessential amino acids (100×, Thermo Fischer Scientific). […] The medium was changed every 2–3 days.
The bidirectional transport assay for the evaluation of Caco-2 permeability was undertaken in 24-well insert plates using a robotic system (Tecan). Before the assay was run, the culture medium was replaced by a transport medium (FCS-free HEPES carbonate transport buffer pH 7.2). For the assessment of monolayer integrity, the transepithelial electrical resistance (TEER) was measured. Only monolayers with a TEER of at least 400 Ω·cm^2 were used. Test compounds were pre-dissolved in DMSO and added either to the apical or basolateral compartment at a final concentration of 2 μM. The evaluation was performed in triplicate. […] The efflux ratio (ER) basolateral (B) to apical (A) was calculated by dividing Papp B–A by Papp A–B.

[4] = molecular target: T3, C-terminal HiBiT-tagged USP21 (Homo sapiens, UniProt Q9UK80); experiment: USP21 HiBiT CETSA; format: cell-based; conditions: 49 °C, HEK293T cells
T3 construct: expressed in transfected cells; host or cells: HEK293T
T3 sequence (Q9UK80 1-565): T2 sequence (Q9UK80 1-565)
Protocol: In particular, we utilized a HiBiT CETSA assay format[42],[43] conducted in intact HEK293T cells. Cells were transfected with USP21 fused to a small proluminescent NanoLuc HiBiT tag, which, when complemented with the Large BiT NanoLuc fragment, produces a quantifiable luminescence signal.
HEK293T cells were seeded in a six-well plate at 8 × 10^5 cells/well in 2 mL of DMEM supplemented with 10% FBS, penicillin (100 U/mL), and streptomycin (100 μg/mL) and transfected 4 h after seeding using an X-tremeGENE HP transfection reagent, following the manufacturer’s instructions with a total of 2 μg of plasmid constructs (C-terminally tagged USP21 HiBiT and empty pCDNA3.1 vector). […] The breathable paper adhesive film was then replaced with a PCR adhesive film, and cells were heated at indicated temperatures in an Applied Biosystems VeritiPro thermal cycler for 3 min, followed by 3 min incubation at rt before the addition of LgBiT solution (200 nM LgBiT, 2% NP-40, protease inhibitors (Roche cOmplete, ethylenediaminetetraacetic acid (EDTA)-free Protease Inhibitor) in OptiMEM no phenol red (Gibco)) to lyse cells.

NF-κB activation = experiment: NF-κB reporter assay; format: cell-based; conditions: HEK293T cells, up to 10 μM
Protocol: Yang and colleagues reported that USP21 inhibition induces NF-κB activation by preventing deubiquitination of RIP1.[15] K63 ubiquitinated RIP1 is required for NF-κB activation, and thus USP21-mediated deubiquitination of RIP1 shuts down the NF-κB pathway.
Four hours after replating, cells were treated with compounds or DMSO (note: DMSO concentrations were kept consistent across all cells). Promega Dual-Luciferase Reporter Assay kit was then used to prepare samples for Firefly and Renilla signal measurement on a CLARIOstar microplate reader (BMG) 20 h after compound treatment. Relative luciferase units were calculated by normalizing the Firefly signal to the background Renilla signal, followed by normalization to DMSO controls of wild-type USP21.

Compound | chromatographic logD (log D measurement (HPLC)) | solubility at 24 h (Aqueous solubility) | pIC50 (USP2) | pIC50 (USP21 [2]) | pIC50 (USP21 [3]) | further results
COCC(NC(=O)C1CCCCC1)C(=O)Nc1nnc(Cc2ccc([N+](=O)[O-])cc2)s1 (stereo not shown) [Compound 7, COCC(NC(=O)C1CCCCC1)C(=O)Nc2nnc(Cc3ccc(cc3)[N+](=O)[O-])s2] | 2.6 | – | < 4.60 | – | – | –
CC(C)C(NC(=O)C1CCCC1)C(=O)Nc1nnc(Cc2ccc([N+](=O)[O-])cc2)s1 (stereo not shown) [Compound 3, CC(C)C(NC(=O)C1CCCC1)C(=O)Nc2nnc(Cc3ccc(cc3)[N+](=O)[O-])s2] | 2.8 | – | < 4.60 | < 4.60 | < 4.60 | ΔTm at 100 µM (USP21 [1]): 0.3 °C
COCC(NC(=O)C1CCCC1)C(=O)Nc1nnc(Cc2ccc([N+](=O)[O-])cc2)s1 (stereo not shown) [Compound 4, COCC(NC(=O)C1CCCC1)C(=O)Nc2nnc(Cc3ccc(cc3)[N+](=O)[O-])s2] | 2.4 | – | – | – | – | –
COC[C@@H](NC(=O)C1(C)CCCCC1)C(=O)Nc1nnc(Cc2ccc(C#N)cc2)s1 [Compound 11, COC[C@@H](NC(=O)C1(C)CCCCC1)C(=O)Nc2nnc(Cc3ccc(cc3)C#N)s2] | 2.7 | 126 µM (≈ 55.8 µg/mL) | < 4.60 | – | – | logD7.5 (log D measurement (HPLC)): 2.69; cellular thermal stabilization of USP21 (in words) [4]: strong stabilization of USP21; selectivity against USP2 (USP2; vs USP21): > 780 fold; NF-κB activation (in words) (NF-κB activation): no NF-κB activation up to a concentration of 10 μM
COCC(NC(=O)c1ccccc1)C(=O)Nc1nnc(Cc2ccc([N+](=O)[O-])cc2)s1 (stereo not shown) [Compound 5, COCC(NC(=O)c1ccccc1)C(=O)Nc2nnc(Cc3ccc(cc3)[N+](=O)[O-])s2] | 2.3 | – | < 4.60 | 4.93 | < 4.70 | –
COC[C@@H](NC(=O)C1(C)CCCCC1)C(=O)Nc1nnc(Cc2ccc([N+](=O)[O-])cc2)s1 [Compound 10, COC[C@@H](NC(=O)C1(C)CCCCC1)C(=O)Nc2nnc(Cc3ccc(cc3)[N+](=O)[O-])s2] | – | – | < 4.60 | 7.13 | – | –
COCC(NC(=O)C(C)C)C(=O)Nc1nnc(Cc2ccc([N+](=O)[O-])cc2)s1 (stereo not shown) [Compound 6, COCC(NC(=O)C(C)C)C(=O)Nc1nnc(Cc2ccc(cc2)[N+](=O)[O-])s1] | 2 | – | < 4.60 | < 4.60 | < 4.60 | –
COCC(NC(=O)C1CCOCC1)C(=O)Nc1nnc(Cc2ccc([N+](=O)[O-])cc2)s1 (stereo not shown) [Compound 8, COCC(NC(=O)C1CCOCC1)C(=O)Nc2nnc(Cc3ccc(cc3)[N+](=O)[O-])s2] | 1.8 | – | < 4.60 | < 4.60 | < 4.60 | –
COC[C@@H](NC(=O)C1(C)CCCCC1)C(=O)Nc1nc(C)c(Cc2ccc(C#N)cc2)s1 [Compound 12, COC[C@@H](NC(=O)C1(C)CCCCC1)C(=O)Nc2nc(C)c(Cc3ccc(cc3)C#N)s2] | – | 19.4 µM (≈ 8.83 µg/mL) | – | – | – | –
COCC(NC(=O)C1(C)CCCCC1)C(=O)Nc1nnc(Cc2ccc([N+](=O)[O-])cc2)s1 (stereo not shown) [Compound 9, COCC(NC(=O)C1(C)CCCCC1)C(=O)Nc2nnc(Cc3ccc(cc3)[N+](=O)[O-])s2] | 2.9 | – | < 4.60 | – | – | –
COC[C@@H](NC(=O)C1(C)CCCCC1)C(=O)Nc1sc(Cc2ccc(C#N)cc2)nc1C [Compound 13, COC[C@@H](NC(=O)C1(C)CCCCC1)C(=O)Nc2sc(Cc3ccc(cc3)C#N)nc2C] | – | – | – | 7.19 | < 4.60 | –

The next lines start with results.

chromatographic logD (log D measurement (HPLC)) | solubility at 24 h (Aqueous solubility) | pIC50 (USP2) | pIC50 (USP21 [2]) | pIC50 (USP21 [3]) | Compound | further results
2.95 | 71 µM (≈ 32.4 µg/mL) | – | – | – | CCC1(C(=O)N[C@H](COC)C(=O)Nc2nnc(Cc3ccc(C#N)cc3)s2)CCCCC1 [Compound 14, CCC1(CCCCC1)C(=O)N[C@H](COC)C(=O)Nc2nnc(Cc3ccc(cc3)C#N)s2] | –
2.95 | 10.4 µM (≈ 5.17 µg/mL) | – | – | – | COC[C@@H](NC(=O)C1(C(F)(F)F)CCCCC1)C(=O)Nc1nnc(Cc2ccc(C#N)cc2)s1 [Compound 17, COC[C@@H](NC(=O)C1(CCCCC1)C(F)(F)F)C(=O)Nc2nnc(Cc3ccc(cc3)C#N)s2] | logD7.5 (log D measurement (HPLC)): 3.0; Papp A→B at 2 h, 2 µM (in vitro; 2 μM, 2 h): 8.2 ×10⁻⁶ cm/s; efflux ratio at 2 h, 2 µM (in vitro; Papp B–A / Papp A–B, read-out: Caco-2 efflux ratio (ER)): 1.5
2.68 | 131 µM (≈ 62.5 µg/mL) | – | – | – | COC[C@@H](NC(=O)C1(C(F)F)CCCCC1)C(=O)Nc1nnc(Cc2ccc(C#N)cc2)s1 [Compound 16, COC[C@@H](NC(=O)C1(CCCCC1)C(F)F)C(=O)Nc2nnc(Cc3ccc(cc3)C#N)s2] | –
2.9 | 80.2 µM (≈ 40.9 µg/mL) | – | – | – | CC(C)(O)[C@@H](NC(=O)C1(C(F)(F)F)CCCCC1)C(=O)Nc1nnc(Cc2ccc(C#N)cc2)s1 [Compound 19, CC(C)(O)[C@@H](NC(=O)C1(CCCCC1)C(F)(F)F)C(=O)Nc2nnc(Cc3ccc(cc3)C#N)s2] | –
2.59 | 181 µM (≈ 82.9 µg/mL) | – | 4.67 | < 4.60 | COC[C@@H](NC(=O)C1(OC)CCCCC1)C(=O)Nc1nnc(Cc2ccc(C#N)cc2)s1 [Compound 15, COC[C@@H](NC(=O)C1(CCCCC1)OC)C(=O)Nc2nnc(Cc3ccc(cc3)C#N)s2] | –

Source: publication PMC10009755, “Discovery and Characterization of BAY-805, a Potent and Selective Inhibitor of Ubiquitin-Specific Protease USP21” (Journal of Medicinal Chemistry, 2023)
